# Data reported in patent publication US20080242649A1, “New Combination 665” (priority 2007, published 2008).
# Where a name gives a salt, the structure may show the parent alone.
# Test system: guinea pig trachea
# Assay: Bronchodilator onset in guinea pig isolated tracheal ring contracted with methacholine
# Procedure: Evaluation of Bronchodilator Activity in the Guinea Pig Isolated Tracheal Ring Preparation
# Guinea pigs (300-500 g) were killed by cervical dislocation and the trachea was isolated. The trachea was cut into segments 2-3 cartilage rings in width and suspended in 10 ml organ baths in modified Krebs' solution (mM; NaCl, 90; NaHCO3, 45; KCl, 5; MgSO4.7H2O, 0.5; Na2HPO4.2H2O, 1; CaCl2, 2.25; glucose, 10; pH 7.4) gassed with 5% CO2, 95% […] at 37° C.). The tracheal rings were attached to an isometric force transducer for the measurement of isometric tension. The tissues were washed and a force of 1 g was applied to each tissue. The rings were contracted with methacholine (1 μM). Once the contraction had reached a plateau, vehicle (0.01% DMSO in distilled H2O), compound A (3 nM), roflumilast (1 μM) or a combination of compound A (3 nM) and roflumilast (1 μM) was added and the tissue left until the response had reached a plateau. Data were collected using the Chart 4 software (ADInstruments, Charlgrove, UK). The time to 90% of the maximum effect of the bronchodilator (onset time) was measured and expressed in min (mean ±s.e.mean).
structure (smiles),measurement,setting,value
"CCN(CC)CCN(CCNCCc1ccc(O)c2[nH]c(=O)sc12)C(=O)CCOCCc1cccc2ccccc12 [Compound A, N-[2-(Diethylamino)ethyl]-N-(2-{[2-(4-hydroxy-2-oxo-2,3-dihydro-1,3-benzothiazol-7-yl)ethyl]amino}ethyl)-3-[2-(1-naphthyl)ethoxy]propanamide dihydrobromide]",onset time (time to 90% of the maximum effect),Compound A 3 nM in the presence of roflumilast 1 μM,5.7 ± 1.0 min
same,onset time (time to 90% of the maximum effect),"compound A 3 nM alone, methacholine 1 μM contraction, mean ±s.e.mean",16 ± 3.0 min
